Laboratory results: patent US20040038856A1, “Treatment of fibroproliferative disorders using TGF-beta inhibitors” (priority 2002, published 2004)

Test system: bleomycin rat model of pulmonary fibrosis
Test: Bleomycin rat model of pulmonary fibrosis, day 14, dexamethasone and/or test compound
Type: in vivo
Settings: Dex 2.0 mg/kg every other day, test compound 40 mg/kg twice a day
Procedure: Rats were intubated with saline or 1 unit of bleomycin. After twenty four hours, rats were weighed and dosed with saline or 2.0 mg/kg of dexamethasone every other day and 1% methyl cellulose (MC) or 40 mg/kg of a test compound twice a day. On day 14, 1-3 hours after dosing, rat were sacrificed and lungs were inflated and collected for analysis.
The primary end points of the analysis were the total hydroxyproline concentration per lung and lung capacity. The secondary end point was the body weight.
The statistical analysis was done using one-way ANOVA with Bonferroni's Multiple Comparison Test.

C[C@@H]1C[C@H]2[C@@H]3CCC4=CC(=O)C=C[C@]4(C)[C@@]3(F)[C@@H](O)C[C@]2(C)[C@@]1(O)C(=O)CO [dexamethasone]
bleomycin-induced body weight loss: no effect
